# Molecular target: T1, mouse TRPV3 (Mus musculus, UniProt Q8K424)
# T1 sequence (Q8K424 1-791): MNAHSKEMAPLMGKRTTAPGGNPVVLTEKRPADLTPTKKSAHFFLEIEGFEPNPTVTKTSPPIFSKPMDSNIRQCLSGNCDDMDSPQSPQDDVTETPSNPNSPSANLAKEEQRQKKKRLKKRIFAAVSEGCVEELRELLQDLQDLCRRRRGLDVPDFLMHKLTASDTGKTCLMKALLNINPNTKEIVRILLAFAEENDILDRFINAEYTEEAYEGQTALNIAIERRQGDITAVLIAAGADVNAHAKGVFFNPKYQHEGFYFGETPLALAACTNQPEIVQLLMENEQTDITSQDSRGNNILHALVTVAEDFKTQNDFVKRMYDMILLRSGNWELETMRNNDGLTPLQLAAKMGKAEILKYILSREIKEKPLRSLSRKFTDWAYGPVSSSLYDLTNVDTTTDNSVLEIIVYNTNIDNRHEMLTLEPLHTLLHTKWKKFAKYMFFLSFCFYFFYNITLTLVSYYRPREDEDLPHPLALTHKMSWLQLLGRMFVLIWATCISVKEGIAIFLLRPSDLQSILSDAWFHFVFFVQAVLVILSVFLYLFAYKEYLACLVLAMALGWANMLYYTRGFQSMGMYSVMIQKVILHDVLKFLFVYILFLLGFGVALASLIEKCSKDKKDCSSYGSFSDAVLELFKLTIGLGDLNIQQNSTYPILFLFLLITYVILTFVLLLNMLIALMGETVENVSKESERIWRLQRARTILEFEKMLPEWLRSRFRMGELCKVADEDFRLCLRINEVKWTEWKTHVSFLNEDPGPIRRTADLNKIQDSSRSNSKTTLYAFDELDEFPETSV
# Assay: Voltage-step whole-cell recording of TRPV3 currents (40 μM 2-APB) in HEK 293T cells
# Assay type: cell-based
# Parameters: expressed in transfected cells; host or cells: HEK 293T
# Conditions: steps –160 to +180 mV, dyclonine 10, 30 μM, RR 10 μM
# Source text: Conventional whole-cell and excised patch-clamp recording methods were used. For the recombinant expressing system, green fluorescent EGFP was used as a surface marker for gene expression. Recording pipettes were pulled from borosilicate glass capillaries (World Precision Instruments) and fire-polished to a resistance between 2 and 4 MΩ when filled with internal solution containing (in mM) 140 CsCl, 2.0 MgCl2, 5 EGTA, and 10 HEPES, pH 7.4 (adjusted with CsOH). Bath solution contained (in mM): 140 NaCl, 5 KCl, 3 EGTA, and 10 HEPES, pH 7.4 adjusted with NaOH. For recordings in keratinocytes, the bath saline consisted of (in mM) 140 NaCl, 5 KCl, 2 MgCl2, 2 CaCl2, 10 glucoses, and 10 HEPES, pH 7.4 adjusted with NaOH, and the pipette solution contained (in mM) 140 CsCl, 5 EGTA, and 10 HEPES, pH 7.3 adjusted with CsOH. […] For a subset of recordings, currents were amplified using an Axopatch 200B amplifier (Molecular Devices, Sunnyvale, CA) and recorded through a BNC-2090/MIO acquisition system (National Instruments, Austin, TX) using QStudio developed by Dr. Feng Qin at State University of New York at Buffalo. […] As determined by the conductance tests, the solution around a patch under study was fully controlled by the application of a flow rate of 100 μl/min or greater. […]
compound,measurement,value
CCCCOc1ccc(C(=O)CCN2CCCCC2)cc1 [dyclonine],effect on TRPV3-mediated inward and outward currents (voltage dependence),the inhibition occurred independently of the membrane potential

# From PMC8112869, “Therapeutic inhibition of keratinocyte TRPV3 sensory channel by local anesthetic dyclonine” (eLife, 2021)
